Here are results for nine compounds from patent US9676771B2, “Compounds for inhibiting drug-resistant strains of HIV-1 integrase” (priority 2013, dated 2017).

The target in data set [1] is HIV-1 integrase (Human immunodeficiency virus type 1 group M subtype B, UniProt P12497). As to the kind of experiment: biochemical. Format: biochemical. A digest of the protocol:
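Compounds or DMSO added to 20 nM DNA and 400 nM integrase in 50 mM MOPS pH 7.2, 7.5 mM MgCl2, 14 mM 2-mercaptoethanol; 2 h at 37° C, quenched with formamide/SDS loading buffer. Products resolved on gels, imaged and quantified by densitometry.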

Data set [2] can be described thus: in vitro. Format: cell-based, human. To be noted: human, 50% reduction in the level of ATP in HOS cells. The procedure, abridged:
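Cells exposed to compounds over a concentration range for 48 hrs at 37° C. Viability read as cellular ATP by luciferase (ATPlite) luminescence after lysis, normalised to untreated cells; CC50 derived by regression fit.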

In data set [3] the test system is HIV-1 constructs containing wild-type IN. Nature of the data set: microbe, parasite or virus in culture. The class given is cell-based. To be noted: for EC50: Human immunodeficiency virus 1, WT IN, read-out: EC50 (nM, WT).
The subject of data set [4] is HIV-1 constructs containing mutant IN G140S-Q148H. As to the kind of experiment: microbe, parasite or virus in culture. The class given is cell-based. To be noted: Human immunodeficiency virus 1. A digest of the protocol: (§1)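 Single-round infectivity assay using luciferase-reporter pNLNgoMIVR−ΔEnv.LUC virus carrying site-directed integrase mutants, produced in 293 cells. Activity normalized to infectivity without compound; EC50 from regression fit.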

Data set [5] deals with HIV-1 constructs containing mutant IN N155H. Nature of the data set: microbe, parasite or virus in culture. Format: cell-based. To be noted: Human immunodeficiency virus 1. The procedure, abridged:
as §1

Data set [6] relates to HIV-1 constructs containing mutant IN Y143R. Nature of the data set: microbe, parasite or virus in culture. Format: cell-based. To be noted: Human immunodeficiency virus 1. A digest of the protocol:
as §1

Data set [7] deals with HIV-1 constructs containing mutant IN G118R. As to the kind of experiment: microbe, parasite or virus in culture. The class given is cell-based. To be noted: Human immunodeficiency virus 1. On the procedure: (§2) Single-Round HIV-1 Infectivity Assay.
(§3) Human embryonyl kidney cell culture cell line 293 was acquired from the American type Culture Collection (ATCC).
(§4) […]. […] The virus-containing supernatants were then harvested, clarified by low-speed centrifugation, filtrated, and diluted for preparation in infection assays. […] After compound incorporation and activation in the cell, 100 μL of virus-stock diluted to achieve a maximum luciferase signal between 0.2 and 1.5 RLUs was added to each well and further incubated at 37° C. for 48 hrs. […] Activity was normalized to infectivity in the absence of target compounds. KaleidaGraph (Synergy Software, Reading, Pa.) was used to perform regression analysis on the data. EC50 values were determined from the fit model.
(§5) pNLNgoMIVR^−ΔEnv.LUC has been described previously (Zhao et al. 2008). The integrase codon reading frame was removed from pNLNgoMIVR^−ΔEnv LUC (between KpnI and SalI sites) and placed between the KpnI and SalI sites of pBluescript II KS+. Using that construct as the wild-type template, we prepared the following HIV-1 Integrase-resistant mutants via the QuikChange II XL (Stratagene, La Jolla, Calif.) site-directed mutagenesis protocol: H51Y, T66I, E92Q, G118R, Y143R, Q148H, Q148K, N155H, R263K, G140S+Q148H, G140A+Q148K, E138K+Q148K, and H51Y+R263K. The following sense with cognate antisense (not shown) oligonucleotides (Integrated DNA Technologies, Coralville, Iowa) were used in the mutagenesis: H51Y, 5′-[…]-3; T66I, 5′-[…]-3′; E92Q, 5′-[…]-3′; G118R, 5′-[…]-3′; E138K, 5′-[…]-3; G140A, 5′-[…]-3; G140S, 5′-[…]-3′; Y143R, 5′-[…]-3′; Q148H, 5′-[…]-3′; Q148K, 5′-[…]-3; N155H, 5′-[…]-3′; R263K 5′-[…]-3′. The double mutation G140S+Q148H was constructed by using the previously generated Q148H mutant and the appropriate oligonucleotide for the 2nd mutation, G140S. The double mutation G140A+Q148K was made by using the Q148K mutant and the appropriate oligonucleotide for the 2nd mutation, G140A. The double mutation E138K+Q148K was made by using the Q148K mutant and the appropriate oligonucleotide for the 2nd mutation, E138K. The double mutation H51Y+R263K was constructed by using the previously generated H51Y mutant and the appropriate oligonucleotides for the 2nd mutation, R263K. The DNA sequence of each construct was verified independently by DNA sequence determination. The mutant integrase coding sequences from pBluescript II KS+ were then subcloned into pNLNgoMIVR^−ΔEnv LUC (between the KpnI and SalI sites) to produce the full-length mutant HIV-1 Integrase constructs. These DNA sequences were additionally checked independently by DNA sequence determination.

Data set [8] concerns HIV-1 constructs containing mutant IN R263K. Nature of the data set: Single-round HIV-1 infectivity assay, IN mutant R263K. The note with it: Human immunodeficiency virus 1. The class given is cell-based. On the procedure: as §2, §3, §4, §5
The subject of data set [9] is HIV-1 constructs containing mutant IN E92Q. As to the kind of experiment: Single-round HIV-1 infectivity assay, IN mutant E92Q. The note with it: Human immunodeficiency virus 1; Table 8; read-out: EC50 (nM, IN mutants) E92Q. The class given is cell-based. On the procedure: as §2, §3, §4, §5
Setting [10] is: Table 7, 3′-processing, read-out: IC50 (μM) 3′-P.
Where [11] appears, read: Table 7, strand transfer, read-out: IC50 (μM) ST.
The mark [12] stands for this setting: Table 8, read-out: EC50 (nM, IN mutants) G140S/Q148H.
[13] abbreviates: Table 8, read-out: EC50 (nM, IN mutants) N155H.
Where [14] appears, read: Table 8, read-out: EC50 (nM, IN mutants) Y143R.
Setting [15] is: Table 10, strand transfer, read-out: IC50 (nM, ST).

Where two headings read alike, the source gives them in different places.

In the case of `O=C(NCc1ccc(F)cc1F)c1c(NCCO)c2cccnc2n(O)c1=O` [XZ378, N-(2,4-difluorobenzyl)-1-hydroxy-4-((2-hydroxyethyl)amino)-2-oxo-1,2-dihydro-1,8-naphthyridine-3-carboxamide], the IC50 (in general, the concentration that gives 50% inhibition) came to 550 ± 70 nM in [1] (Table 4, 3′-processing, read-out: IC50 (3^+-Processing)) and 10 ± 9 nM in data set [1] (Table 4, strand transfer, read-out: IC50 (Strand Transfer)). Moreover, the CC50 in data set [2] (Table 3) and in [2] (Table 6) was 23500 ± 3000 nM throughout. For the same compound, the EC50 came to 5.2 ± 0.6 nM in [3] (Table 3); 43.1 ± 15.3 nM in data set [4] (Table 3, G140S-Q148H double mutant, read-out: EC50 (nM, IN Mutants) SH); 24.6 ± 3.8 nM in data set [5] (Table 3, read-out: EC50 (nM, IN Mutants) N155H); 4.6 ± 1.8 nM in [6] (Table 3, read-out: EC50 (nM, IN Mutants) Y143R); 27.3 ± 1.4 nM in data set [7] (Table 6, read-out: EC50 (nM, IN Mutants) G118R); 26 nM in data set [8] (Table 6, read-out: EC50 (nM, IN Mutants) R263K). Moreover, the “Si (selectivity index)” value in data set [3] (Table 3, ratio of CC50 to EC50) was 4,519.

For the compound `Nc1c(C(=O)NCc2ccc(F)cc2F)c(=O)n(O)c2ncc(CCCCc3ccccc3)cc12` [XZ429, 4-Amino-N-(2,4-difluorobenzyl)-1-hydroxy-2-oxo-6-(4-phenylbutyl)-1,2-dihydro-1,8-naphthyridine-3-carboxamide], the results for the IC50 in data set [1] (setting [10]) and in data set [1] (setting [11]) were 42000 ± 4000 nM and 1980 ± 422 nM, respectively. Further, the CC50 (usually the concentration at which the toxic effect on the cells reaches its halfway point) in data set [2] (Table 8) worked out at 12800 nM. Further, the EC50 in [3] (Table 8) was determined as 10.6 nM; in data set [4] (setting [12]), 128 nM; in data set [5] (setting [13]) it was 38.8 nM; in [6] (setting [14]), 4.7 nM.

As for `Nc1c(C(=O)NCc2ccc(F)cc2F)c(=O)n(O)c2ncc(CCc3ccccc3)cc12` [XZ430, 4-Amino-N-(2,4-difluorobenzyl)-1-hydroxy-2-oxo-6-phenethyl-1,2-dihydro-1,8-naphthyridine-3-carboxamide], the IC50 turned out to be 48000 ± 4000 nM in [1] (setting [10]) and 14.5 ± 3.4 nM in data set [1] (setting [11]). For the same compound, the CC50 in data set [2] (Table 8) was 17600 nM. For the same compound, the EC50 in data set [3] (Table 8) was 5.6 nM; in data set [4] (setting [12]), 140 nM; in data set [5] (setting [13]), 21.1 nM; in [6] (setting [14]), 5.5 nM.

With `COC(=O)CNc1c(C(=O)NCc2ccc(F)cc2F)c(=O)n(O)c2ncc(CCCCCO)cc12` [XZ431, Methyl 2-((3-((2,4-difluorobenzyl)carbamoyl)-1-hydroxy-6-(5-hydroxypentyl)-2-oxo-1,2-dihydro-1,8-naphthyridin-4-yl)amino)acetate], the IC50 in data set [1] (setting [10]) was 2100 ± 500 nM; in data set [1] (setting [11]) it was 3.7 ± 0.7 nM. Moreover, in [2] (Table 8), the half-maximal cytotoxic concentration (CC50) is greater than 250000 nM. Further, the EC50 in [3] (Table 8) is 3.3 nM; in data set [4] (setting [12]), 41.6 nM; in [5] (setting [13]), 11.1 nM; in data set [6] (setting [14]), 3.5 nM.

For the compound `Nc1c(C(=O)NCc2ccc(F)cc2F)c(=O)n(O)c2ncc(CCCOCCO)cc12` [XZ432, 4-Amino-N-(2,4-difluorobenzyl)-1-hydroxy-6-(3-(2-hydroxyethoxy)propyl)-2-oxo-1,2-dihydro-1,8-naphthyridine-3-carboxamide], the IC50 in data set [1] (setting [10]) was determined as 1500 ± 400 nM; in data set [1] (setting [11]), 2.5 ± 0.4 nM. Moreover, the CC50 in data set [2] (Table 8) is greater than 250000 nM. The EC50 in data set [3] (Table 8) came to 1.6 nM; in data set [4] (setting [12]) it was 35.3 nM; in data set [5] (setting [13]), 4.2 nM; in [6] (setting [14]) it was 1.2 nM.

On to `Nc1c(C(=O)NCc2ccc(F)cc2F)c(=O)n(O)c2ncc(CCC(=O)O)cc12` [XZ444, 3-(5-Amino-6-((2,4-difluorobenzyl)carbamoyl)-8-hydroxy-7-oxo-7,8-dihydro-1,8-naphthyridin-3-yl)propanoic acid], for which the IC50 in [1] (setting [15]) came out at 3.9 ± 1.3 nM. For the same compound, the CC50 in data set [2] (Table 8) was greater than 250000 nM. Also, the EC50 was determined as 1.9 nM in [3] (Table 8), 195 nM in data set [4] (setting [12]), 10.3 nM in data set [5] (setting [13]) and 4.9 nM in [6] (setting [14]).

On to `CS(=O)(=O)CCc1cnc2c(c1)c(N)c(C(=O)NCc1ccc(F)cc1F)c(=O)n2O` [XZ445, 4-Amino-N-(2,4-difluorobenzyl)-1-hydroxy-6-(2-(methylsulfonyl)ethyl)-2-oxo-1,2-dihydro-1,8-naphthyridine-3-carboxamide], for which, in [1] (setting [15]), the IC50 was roughly 0.07 nM. For the same compound, in data set [2] (Table 8), the CC50 was 95400 nM. Further, the EC50 turned out to be 27 nM in data set [3] (Table 8), 118 nM in data set [4] (setting [12]), 32.8 nM in data set [5] (setting [13]) and 27.5 nM in data set [6] (setting [14]).

`Nc1c(C(=O)NCc2ccc(F)cc2F)c(=O)n(O)c2ncc(CCS(=O)(=O)c3ccccc3)cc12` [XZ446, 4-Amino-N-(2,4-difluorobenzyl)-1-hydroxy-2-oxo-6-(2-(phenylsulfonyl)ethyl)-1,2-dihydro-1,8-naphthyridine-3-carboxamide]: the IC50 in [1] (setting [15]) came to 3.7 ± 1.3 nM. In data set [2] (Table 8), the CC50 is greater than 250000 nM. Further, the EC50 in data set [3] (Table 8) worked out at 2 ± 0.1 nM; in [4] (setting [12]), 5.2 nM; in data set [5] (setting [13]), 2.1 nM; in data set [6] (setting [14]) it was 0.6 nM; in data set [7] (Table 8, read-out: EC50 (nM, IN mutants) G118R), 11.4 nM; in data set [8] (Table 8, read-out: EC50 (nM, IN mutants) R263K) it was 5.3 nM. Further, in data set [9], the EC50 came to 1.2 nM.

As for `Nc1c(C(=O)NCc2ccc(F)cc2F)c(=O)n(O)c2ncc(CCS(=O)(=O)CCN3CCOCC3)cc12` [XZ447, 4-Amino-N-(2,4-difluorobenzyl)-1-hydroxy-6-(2-((2-morpholinoethyl)sulfonyl)ethyl)-2-oxo-1,2-dihydro-1,8-naphthyridine-3-carboxamide], the concentration for half-maximal inhibition (IC50) in data set [1] (setting [15]) is 2.5 ± 1.3 nM. For the same compound, the CC50 in data set [2] (Table 8) is greater than 250000 nM. The EC50 in [3] (Table 8) was determined as 268 nM; in data set [4] (setting [12]), 412 nM; in data set [5] (setting [13]) it was 140 nM; in data set [6] (setting [14]), 109 nM.
